Here are results for nine compounds from article PMC7321251 (Molecules, 2020).

The target in data set [1] is T1, SPHK2 (Homo sapiens, UniProt Q9NRA0).
T1 construct: purchased Thermo Fisher Scientific
T1 sequence (Q9NRA0 1-654): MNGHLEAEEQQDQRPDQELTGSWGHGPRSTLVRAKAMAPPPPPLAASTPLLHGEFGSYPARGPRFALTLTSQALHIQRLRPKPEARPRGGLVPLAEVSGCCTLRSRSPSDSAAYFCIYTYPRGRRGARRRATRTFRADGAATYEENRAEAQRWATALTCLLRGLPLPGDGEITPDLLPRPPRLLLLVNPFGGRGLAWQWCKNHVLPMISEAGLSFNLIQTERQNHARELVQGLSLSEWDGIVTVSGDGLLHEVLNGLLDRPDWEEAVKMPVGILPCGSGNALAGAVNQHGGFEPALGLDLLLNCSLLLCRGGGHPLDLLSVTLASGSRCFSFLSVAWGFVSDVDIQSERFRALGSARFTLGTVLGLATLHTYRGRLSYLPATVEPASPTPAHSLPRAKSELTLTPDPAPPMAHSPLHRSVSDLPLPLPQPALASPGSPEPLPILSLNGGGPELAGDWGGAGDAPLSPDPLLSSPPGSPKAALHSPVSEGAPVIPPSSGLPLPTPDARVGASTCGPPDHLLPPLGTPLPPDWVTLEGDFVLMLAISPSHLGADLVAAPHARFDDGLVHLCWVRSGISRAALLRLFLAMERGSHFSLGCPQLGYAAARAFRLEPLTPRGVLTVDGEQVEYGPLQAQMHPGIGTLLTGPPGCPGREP
The data set can be described thus: Sphingosine kinase 2 activity assay (Adapta screening system). The class given is biochemical. The note with it: 20 μM compound. On the procedure:
[…]. The sphingosine kinase 1 activity assay used 0.04–0.16 ng SPHK1, 50 μM sphingosine lipid substrate in 32.5 mM HEPES pH 7.5, 0.005% BRIJ 35, 5 mM MgCl2, 0.5 mM ethylene glycol-bis(β-aminoethyl ether)-N,N,N′,N′-tetraacetic acid (EGTA). The sphingosine kinase 2 activity assay detected 35 - 140 ng SPHK2, 50 μM sphingosine lipid substrate in 32.5 mM HEPES pH 7.5, 0.5 mM EGTA, 1.5 mM MgCl2.

For data set [2], the target named is T2, SPHK1 (Homo sapiens, UniProt Q9NYA1).
T2 construct: purchased Thermo Fisher Scientific
Description: Sphingosine kinase 1 activity assay (Adapta screening system). In kind it is biochemical. The settings on record: 20 μM compound; for SK1 inhibitory effect (in words): compared with PF-543; for inhibition at 20 µM: read-out: SK1 inhibition.

Data set [3] is described as follows: Liver microsomal stability, dog (DLM). In kind it is in vitro ADME. The note with it: dog liver microsomes, NADPH. On the procedure:
[Worded in the source for another species; this species is reported under the same test.] (§1) Microsomal incubations were conducted in triplicate in 0.1 M potassium phosphate buffer (pH 7.4) in a clean 1.5 mL eppendorf tube. […] HLM was added and the mixture was pre-incubated at 37 °C in a shaking incubator at approximately 350 rpm for 5 min under Thermo mixer (Eppendorf., Hamburg, Germany). Reactions were initiated by the addition of 1 mM NADPH and were then quenched by adding 40 µL of ice-cold acetonitrile containing 10 µM chlorproamide (CPP) as an internal standard at 0, 30 min. The incubation mixtures were then centrifuged at 15,000× g for 5 min at 4 °C. A 2 µL aliquot of the supernatant was directly injected into the LC-MS/MS system. The LC-MS/MS system consisted of the Nexera XR HPLC system (Shimadzu Co., Kyoto, Japan) coupled to the TSQ Vantage triple quadrupole mass spectrometer equipped with Xcalibur version 1.1.1 (Thermo Fisher Scientific Inc., Waltham, MA, USA).
(In general: Microsomes from liver hold many membrane-bound enzymes, among them those of drug oxidation.)

Data set [4] in a line: Liver microsomal stability, rat (RLM). In kind it is in vitro ADME. The note with it: rat liver microsomes, NADPH. On the procedure: [Worded in the source for another species; this species is reported under the same test.] as §1
A short description of data set [5]: Liver microsomal stability, mouse (MLM). In kind it is in vitro ADME. The settings on record: mouse liver microsomes, NADPH. On the procedure: [Worded in the source for another species; this species is reported under the same test.] as §1
A short description of data set [6]: Liver microsomal stability, human (HLM). The note with it: human liver microsomes, NADPH. In kind it is in vitro ADME. On the procedure:
as §1

Data set [7] deals with SK2. Further details: method as in PMID 21940750. The settings on record: cited from earlier work.

pKi: −log10 of the molar value.

T2 sequence (Q9NYA1 whole entry): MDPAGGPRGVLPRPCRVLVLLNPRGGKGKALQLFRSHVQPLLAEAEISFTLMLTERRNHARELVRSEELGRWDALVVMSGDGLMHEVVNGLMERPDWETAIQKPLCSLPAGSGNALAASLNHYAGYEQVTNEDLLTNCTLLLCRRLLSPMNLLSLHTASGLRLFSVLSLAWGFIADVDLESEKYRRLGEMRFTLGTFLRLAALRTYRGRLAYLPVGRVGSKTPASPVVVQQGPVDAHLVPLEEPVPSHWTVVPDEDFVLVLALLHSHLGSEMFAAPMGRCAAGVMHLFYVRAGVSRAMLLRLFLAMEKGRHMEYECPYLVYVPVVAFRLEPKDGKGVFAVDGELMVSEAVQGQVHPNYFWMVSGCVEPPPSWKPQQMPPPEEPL

In the case of `O=S(=O)(Cc1cc(O)cc(OCc2ccc(CN3CCC[C@@H]3CO)cc2)c1)c1ccccc1` [compound 8, (R)-3-((4-((2-(Hydroxymethyl)pyrrolidin-1-yl)methyl)benzyl)oxy)-5-((phenylsulfonyl)methyl)phenol], the “SK2 inhibitory effect (in words)” value in data set [1] is listed as “showed an inhibitory effect against SK2 alone”.

Regarding `O=S(=O)(Cc1cc(F)cc(OCc2ccc(CN3CCC(O)CC3)cc2)c1)c1ccccc1` [compound 7, 1-(4-((3-Fluoro-5-((phenylsulfonyl)methyl)phenoxy)methyl)benzyl)piperidin-4-ol], in data set [2], the “SK1 inhibitory effect (in words)” value is listed as “reduced”.

Turning to `O=S(=O)(Cc1cccc(OCc2ccc(CN3CC[C@H](O)C3)cc2)c1)c1ccccc1` [compound 3, (S)-1-(4-((3-((Phenylsulfonyl)methyl)phenoxy)methyl)benzyl)pyrrolidin-3-ol], the inhibition at 20 µM in data set [2] worked out at 100%.

On to `O=S(=O)(Cc1cc(F)cc(OCc2ccc(CN3CCC[C@@H]3CO)cc2)c1)c1ccccc1` [compound 5, (R)-(1-(4-((3-Fluoro-5-((phenylsulfonyl)methyl)phenoxy)methyl)benzyl)pyrrolidin-2-yl)methanol], for which the inhibition at 20 µM in data set [2] worked out at 100%. Also, the “DLM microsomal stability (% remaining during 30 min)” value in data set [3] is 5.5 % remaining. In addition, in data set [4], the “RLM microsomal stability (% remaining during 30 min)” value is reported as 6.8 % remaining. Besides, the “MLM microsomal stability (% remaining during 30 min)” value in data set [5] amounted to 9.8 % remaining. Moreover, the “HLM microsomal stability (% remaining during 30 min)” value in data set [6] worked out at 7.6 % remaining.

`O=S(=O)(Cc1cccc(OCc2ccc(CN3CCC(O)CC3)cc2)c1)c1ccccc1` [compound 4, 1-(4-((3-((Phenylsulfonyl)methyl)phenoxy)methyl)benzyl)piperidin-4-ol]: in data set [2], the “SK1 inhibitory effect (in words)” value is “reduced”.

In the case of `O=S(=O)(Cc1cc(O)cc(OCc2ccc(CN3CCC(O)CC3)cc2)c1)c1ccccc1` [compound 10, 1-(4-((3-Hydroxy-5-((phenylsulfonyl)methyl)phenoxy)methyl)benzyl)piperidin-4-ol], the “SK1 inhibitory effect (in words)” value in data set [2] is “reduced”.

In the case of `O=S(=O)(Cc1cc(F)cc(OCc2ccc(CN3CC[C@H](O)C3)cc2)c1)c1ccccc1` [compound 6, (S)-1-(4-((3-fluoro-5-((phenylsulfonyl)methyl)phenoxy)methyl)benzyl)pyrrolidin-3-ol], the inhibition at 20 µM in data set [2] came to 100%.

For the compound `CCCCCCCCc1ccc(CC[C@@](N)(CO)COC)cc1` [ROME, (R)-FTY720-OMe], in data set [7], the pKi is 4.80.

Turning to `O=S(=O)(Cc1cccc(OCc2ccc(CN3CCC[C@@H]3CO)cc2)c1)c1ccccc1` [compound 2, (R)-(1-(4-((3-((Phenylsulfonyl)methyl)phenoxy)methyl)benzyl)pyrrolidin-2-yl)methanol], the inhibition at 20 µM in data set [2] was 100%.

By inhibition is commonly meant how much of the control response was suppressed. A word on the pKi: it is the Ki on a negative log10 scale, so that one unit is a factor of ten.
